This assay deals with GIRK currents. Briefly: patch clamp assay, control treatment with Pertussis toxin or GIRK inhibitor. It counts as cell-based, human. The following applies: Tertiapin 100 nM, pertussis toxin 100 ng/ml overnight. As to the method: HEK 293 cells expressing HKIR3.1/3.2 channel and human somatostatin receptor 2 were treated with these compounds, and whole cell patch-clamp current recordings taken.
Whole cell patch-clamp current recordings were performed with an Axopatch 200B amplifier (Axon Instruments) using fire-polished pipettes with a resistance of 3-4 MΩ pulled from filamented borosilicated glass capillaries (Harvard Apparatus, 1.5 mm OD×1.17 mm ID). Data was acquired and analysed via a Digidata 1322A interface (Axon Instruments) and pCLAMP software (version 8.1, Axon Instruments). A fast perfusion system was used to apply somatostatin and analogues (Rapid Solution Changer, RSC-160, Bio-Logic France). Cells were clamped at −60 mV. The extracellular solution was (mM): NaCl 80, KCl 60, CaCl22, MgCl21, HEPES 10, NaH2PO4 0.33, glucose 10, pH 7.4; while the intracellular solution was (mM): K gluconate 110, KCl 20, NaCl 10, MgCl2 1, MgATP 2, EGTA 2 GTP 0.3, pH 7.4. After agonist application, current activated with a delay “lag” followed by a rapid rise to peak amplitude “time to peak”. After removal of the agonist, the current decays back to baseline. For each cell it was assessed if flow artifacts resulting from the pressure of drug application were present. This was done by applying bath solution from one of the sewer pipes at the beginning of the recordings. […]
A general note: The patch-clamp technique gives a direct electrical read-out from membranes.

Turning to Pertussis toxin, the “GIRK currents when cells were treated with control inhibitor” value is “currents were largely inhibited”.
The entry for Tertiapin Q is “currents were largely inhibited”.

These data come from patent US20120190814A1, “Thiol Protecting Group” (UCL BUSINESS PLC, priority 2009, published 2012).
